The values that follow come from patent US20220306626A1, “CRYSTALLINE FORM OF A DIHYDROCHLORIDE SALT OF A JAK INHIBITOR COMPOUND” (Theravance Biopharma R&D IP, LLC, priority 2021, published 2022).

Read-outs that look alike come from different tables or passages of the source.

The nature of series [1]: Dynamic moisture sorption (DMS) assessment. The class given is physicochemical. The protocol:
Dynamic moisture sorption (DMS) measurement was performed using a VTI atmospheric microbalance, SGA-100 system (VTI Corp., Hialeah, Fla. 33016). A weighed sample was used and the humidity was at the lowest possible value (close to 0% RH) at the start of the analysis. The DMS analysis consisted of an initial drying step (˜0% RH) for 16 hours, followed by two cycles of sorption and desorption with a scan rate of 5% RH/step over the humidity range of 5% RH to 90% RH. The DMS run was performed isothermally at 25° C.

Series [2] can be described thus: Stability study, storage at 40° C. and 75% relative humidity, analysed by HPLC. The class given is physicochemical. On the procedure: Samples of the crystalline form were stored in glass vials with screw caps at 40° C. and 75% relative humidity (RH). At specific intervals, the contents of a representative sample were removed and analyzed by HPLC for assay and chemical purity as shown in Table 3.

The nature of series [3]: Solubility of the crystalline form in water and Simulated Lung Fluid. The format is physicochemical. The protocol: The solubility of the crystalline form was assessed in water and Simulated Lung Fluid (SLF). The crystalline form was dispersed in liquid media in multiple vials to form slurries, with each vial containing about 7.5 mg of the crystalline form and 0.5 mL of the liquid media. The slurries were agitated in a thermo-shaker at 25° C. and samples were collected from different vials at approximately 5, 15, 30, 60 minutes, and 24 hours. At each of the timepoints, the slurries were centrifuged for 10 minutes. The supernatant was collected and centrifuged for another 10 minutes. Solubility at each timepoint is determined by analyzing the compound concentration in the supernatant using HPLC. SLF composition: 0.4% NaCl, 0.02% DPPC in 50 mM phosphate buffer pH 6.9

Series [4] is described as follows: Thermogravimetric analysis (TGA). The class given is physicochemical. As to conditions: heating rate of 10° C., ambient to 360° C., nitrogen. On the procedure: Thermogravimetric analysis (TGA) measurements were performed using a TA Instruments Model Q-50 module equipped with high resolution capability. Data were collected using TA Instruments Thermal Analyst controller and analyzed using TA Instruments Universal Analysis software. A weighed sample was placed onto a platinum pan and scanned with a heating rate of 10° C. from ambient temperature to 360° C. The balance and furnace chambers were purged with nitrogen flow during use. The crystalline form decomposes at an onset temperature of about 285° C.

In the next series the target is JAK1 (Homo sapiens, UniProt P23458). Particulars: cited from earlier work.
Chain of JAK1 (P23458 whole entry): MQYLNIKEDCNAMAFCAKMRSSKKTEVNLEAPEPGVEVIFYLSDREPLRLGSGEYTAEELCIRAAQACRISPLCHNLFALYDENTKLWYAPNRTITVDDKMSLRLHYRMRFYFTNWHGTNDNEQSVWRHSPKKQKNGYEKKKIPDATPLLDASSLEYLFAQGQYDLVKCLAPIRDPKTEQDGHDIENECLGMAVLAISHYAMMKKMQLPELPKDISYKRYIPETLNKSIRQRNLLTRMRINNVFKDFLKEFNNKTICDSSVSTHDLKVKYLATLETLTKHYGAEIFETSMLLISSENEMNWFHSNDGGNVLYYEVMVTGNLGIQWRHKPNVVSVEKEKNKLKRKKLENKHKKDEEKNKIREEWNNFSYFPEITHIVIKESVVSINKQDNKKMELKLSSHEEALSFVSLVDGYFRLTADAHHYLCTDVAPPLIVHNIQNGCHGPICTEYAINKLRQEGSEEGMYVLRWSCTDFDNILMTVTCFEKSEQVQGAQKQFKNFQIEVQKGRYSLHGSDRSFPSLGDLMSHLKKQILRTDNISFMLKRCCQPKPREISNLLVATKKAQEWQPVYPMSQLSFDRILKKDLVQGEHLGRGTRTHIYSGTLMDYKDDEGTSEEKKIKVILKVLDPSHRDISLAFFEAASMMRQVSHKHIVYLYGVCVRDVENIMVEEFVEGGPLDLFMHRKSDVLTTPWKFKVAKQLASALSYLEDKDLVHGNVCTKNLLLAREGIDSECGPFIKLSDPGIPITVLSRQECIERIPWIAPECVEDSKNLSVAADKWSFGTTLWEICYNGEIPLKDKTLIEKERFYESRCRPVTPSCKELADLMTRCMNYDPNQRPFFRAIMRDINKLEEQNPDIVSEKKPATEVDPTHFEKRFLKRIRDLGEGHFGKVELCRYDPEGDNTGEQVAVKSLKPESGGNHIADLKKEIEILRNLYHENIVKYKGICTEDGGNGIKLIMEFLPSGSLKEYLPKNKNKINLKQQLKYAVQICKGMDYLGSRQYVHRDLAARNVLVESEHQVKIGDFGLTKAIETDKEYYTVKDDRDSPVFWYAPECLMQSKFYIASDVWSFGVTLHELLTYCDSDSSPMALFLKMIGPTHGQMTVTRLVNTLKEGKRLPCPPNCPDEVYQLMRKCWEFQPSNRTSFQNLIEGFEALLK
In a further series the target is JAK2 (Homo sapiens, UniProt O60674). Particulars: cited from earlier work.
Chain of JAK2 (O60674 whole entry): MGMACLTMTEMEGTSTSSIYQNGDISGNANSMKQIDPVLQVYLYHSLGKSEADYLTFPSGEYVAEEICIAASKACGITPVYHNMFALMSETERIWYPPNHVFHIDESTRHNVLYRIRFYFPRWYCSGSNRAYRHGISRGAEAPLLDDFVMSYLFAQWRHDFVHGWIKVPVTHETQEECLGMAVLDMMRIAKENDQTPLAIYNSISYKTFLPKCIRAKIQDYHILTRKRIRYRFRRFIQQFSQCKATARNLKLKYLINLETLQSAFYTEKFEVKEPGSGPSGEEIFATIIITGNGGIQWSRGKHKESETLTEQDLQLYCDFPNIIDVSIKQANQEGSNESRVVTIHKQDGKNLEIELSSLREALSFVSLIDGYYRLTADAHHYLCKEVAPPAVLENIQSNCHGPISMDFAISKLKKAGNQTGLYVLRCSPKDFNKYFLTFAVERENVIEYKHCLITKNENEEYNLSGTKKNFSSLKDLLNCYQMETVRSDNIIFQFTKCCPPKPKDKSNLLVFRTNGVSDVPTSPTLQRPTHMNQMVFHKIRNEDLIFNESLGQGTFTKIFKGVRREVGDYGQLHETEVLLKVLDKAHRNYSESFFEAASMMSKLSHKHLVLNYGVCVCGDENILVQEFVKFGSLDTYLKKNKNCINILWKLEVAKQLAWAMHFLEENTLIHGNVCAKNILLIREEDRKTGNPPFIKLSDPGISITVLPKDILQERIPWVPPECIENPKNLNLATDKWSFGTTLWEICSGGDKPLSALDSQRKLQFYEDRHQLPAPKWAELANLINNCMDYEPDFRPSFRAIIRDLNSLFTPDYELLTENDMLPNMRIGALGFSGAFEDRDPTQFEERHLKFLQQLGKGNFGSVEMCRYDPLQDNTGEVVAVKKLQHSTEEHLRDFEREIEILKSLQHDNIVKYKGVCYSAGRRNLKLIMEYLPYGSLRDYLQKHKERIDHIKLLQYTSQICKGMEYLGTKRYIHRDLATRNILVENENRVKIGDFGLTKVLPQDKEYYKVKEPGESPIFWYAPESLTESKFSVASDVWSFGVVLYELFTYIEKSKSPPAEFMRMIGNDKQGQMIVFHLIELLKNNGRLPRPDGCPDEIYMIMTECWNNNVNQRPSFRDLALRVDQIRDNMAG
The next series addresses T1, JAK3 (Homo sapiens, UniProt P52333).
T1 sequence (P52333 1-1124): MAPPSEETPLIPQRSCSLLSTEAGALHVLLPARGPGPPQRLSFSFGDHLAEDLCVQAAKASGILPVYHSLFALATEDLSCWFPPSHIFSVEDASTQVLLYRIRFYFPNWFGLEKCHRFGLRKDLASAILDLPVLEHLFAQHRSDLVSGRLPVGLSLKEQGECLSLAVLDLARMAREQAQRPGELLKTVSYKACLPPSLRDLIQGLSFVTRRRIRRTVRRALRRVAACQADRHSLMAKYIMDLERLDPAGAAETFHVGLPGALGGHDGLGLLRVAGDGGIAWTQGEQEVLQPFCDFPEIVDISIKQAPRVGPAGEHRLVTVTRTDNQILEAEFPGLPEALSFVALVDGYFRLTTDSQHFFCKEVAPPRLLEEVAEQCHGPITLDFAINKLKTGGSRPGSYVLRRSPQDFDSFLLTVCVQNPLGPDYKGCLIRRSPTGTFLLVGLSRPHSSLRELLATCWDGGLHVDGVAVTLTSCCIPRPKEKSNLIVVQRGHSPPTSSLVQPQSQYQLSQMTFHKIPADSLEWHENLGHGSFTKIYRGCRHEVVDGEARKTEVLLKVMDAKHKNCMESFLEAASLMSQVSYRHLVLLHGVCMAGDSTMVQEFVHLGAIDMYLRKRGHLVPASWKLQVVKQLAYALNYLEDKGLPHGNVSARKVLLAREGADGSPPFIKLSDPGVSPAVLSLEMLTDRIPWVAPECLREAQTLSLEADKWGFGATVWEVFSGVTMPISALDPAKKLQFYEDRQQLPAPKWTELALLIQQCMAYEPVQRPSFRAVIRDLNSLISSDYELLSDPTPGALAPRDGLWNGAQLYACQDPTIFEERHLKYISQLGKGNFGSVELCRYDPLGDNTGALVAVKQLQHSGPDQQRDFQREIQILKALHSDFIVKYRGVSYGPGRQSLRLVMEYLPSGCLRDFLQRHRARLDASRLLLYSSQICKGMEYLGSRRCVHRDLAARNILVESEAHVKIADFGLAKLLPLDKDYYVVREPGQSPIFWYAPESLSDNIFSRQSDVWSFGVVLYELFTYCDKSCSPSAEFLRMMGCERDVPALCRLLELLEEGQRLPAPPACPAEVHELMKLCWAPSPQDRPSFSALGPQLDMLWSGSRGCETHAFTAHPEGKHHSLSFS
As to conditions: cited from earlier work.

The next series addresses TYK2 (Homo sapiens, UniProt P29597). Particulars: cited from earlier work.
Series [5] deals with pro-inflammatory and pro-fibrotic cytokines. Particulars: cited from earlier work.
For series [6] the following is noted: in vivo; cited from earlier work.
[7] abbreviates: T = 3 Months, 40° C. and 75% RH.
Where [8] appears, read: T = 6 Months, 40° C. and 75% RH.

Chain of TYK2 (P29597 whole entry): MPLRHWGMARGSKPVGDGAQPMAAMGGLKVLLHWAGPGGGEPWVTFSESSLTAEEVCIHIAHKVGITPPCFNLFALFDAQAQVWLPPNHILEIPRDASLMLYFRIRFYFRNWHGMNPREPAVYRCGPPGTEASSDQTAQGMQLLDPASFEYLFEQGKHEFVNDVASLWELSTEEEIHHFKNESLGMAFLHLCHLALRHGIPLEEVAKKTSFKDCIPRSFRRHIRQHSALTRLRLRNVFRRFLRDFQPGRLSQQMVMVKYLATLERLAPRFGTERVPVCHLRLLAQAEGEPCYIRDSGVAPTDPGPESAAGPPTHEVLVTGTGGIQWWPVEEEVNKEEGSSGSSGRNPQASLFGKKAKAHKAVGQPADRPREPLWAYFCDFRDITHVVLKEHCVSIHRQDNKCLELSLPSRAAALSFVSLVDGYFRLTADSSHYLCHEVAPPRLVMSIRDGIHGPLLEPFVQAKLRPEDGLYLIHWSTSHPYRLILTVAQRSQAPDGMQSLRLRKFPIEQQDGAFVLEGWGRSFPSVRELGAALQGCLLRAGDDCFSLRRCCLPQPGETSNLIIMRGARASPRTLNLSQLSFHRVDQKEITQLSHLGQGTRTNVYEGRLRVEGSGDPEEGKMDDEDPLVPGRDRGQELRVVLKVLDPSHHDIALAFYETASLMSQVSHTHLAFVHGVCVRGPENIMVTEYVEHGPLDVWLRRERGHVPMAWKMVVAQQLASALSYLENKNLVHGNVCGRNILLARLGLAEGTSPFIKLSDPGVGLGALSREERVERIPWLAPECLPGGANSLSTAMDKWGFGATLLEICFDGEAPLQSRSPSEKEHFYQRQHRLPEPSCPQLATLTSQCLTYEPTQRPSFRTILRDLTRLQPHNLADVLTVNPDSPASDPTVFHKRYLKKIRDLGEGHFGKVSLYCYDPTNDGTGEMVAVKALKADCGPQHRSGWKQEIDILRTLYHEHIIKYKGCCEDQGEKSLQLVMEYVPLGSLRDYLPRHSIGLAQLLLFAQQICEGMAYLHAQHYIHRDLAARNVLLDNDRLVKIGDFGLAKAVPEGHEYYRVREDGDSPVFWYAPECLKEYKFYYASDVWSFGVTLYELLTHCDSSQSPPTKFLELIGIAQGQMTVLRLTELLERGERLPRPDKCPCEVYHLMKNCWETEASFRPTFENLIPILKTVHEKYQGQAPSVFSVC

For the compound `CCc1cc(O)c(F)cc1-c1ccc2c(-c3nc4c([nH]3)CCN(C3CCN(C)CC3)C4)n[nH]c2c1` [crystalline form, 5-ethyl-2-fluoro-4-(3-(5-(1-methylpiperidin-4-yl)-4,5,6,7-tetrahydro-1H-imidazo[4,5-c]pyridin-2-yl)-1H-indazol-6-yl)phenol, 2HCl Crystalline Form], the “change in form after two cycles of moisture sorption and desorption” value in [1] (5% RH to 90% RH, 25° C.) is recorded as “no change in form”. Moreover, the total moisture uptake result in series [1] (relative humidity between about 5% and about 90%, room temperature (25° C.)) is reported as “about 0.8%”. Further, the Assay % w/w in series [2] (T = 0) is recorded as 85.0 % w/w; in series [2] (T = 1 Week, 40° C. and 75% RH), 86.8 % w/w; in [2] (T = 2 Weeks, 40° C. and 75% RH), 85.1 % w/w; in series [2] (setting [7]) it was 84.5 % w/w; in series [2] (T = 4 Weeks, 40° C. and 75% RH), 86.9 % w/w; in series [2] (setting [8]), 85.1 % w/w. Also, the “HPLC purity % a/a” value in series [2] (T = 0) was found to be 98.7 % a/a; in series [2] (T = 1 Week, 40° C. and 75% RH) it was 98.7 % a/a; in series [2] (T = 2 Weeks, 40° C. and 75% RH) it was 98.7 % a/a; in series [2] (setting [7]) it was 98.7 % a/a; in [2] (T = 4 Weeks, 40° C. and 75% RH) it was 98.7 % a/a; in series [2] (setting [8]), 98.5 % a/a. The “change in purity or assay” value in series [2] (after 6 months at 40° C. and 75% RH) was “no significant change”. In series [3] (Simulated Lung Fluid (SLF), fassgf or other biorelevant, thermodynamic from solid, Simulated Lung Fluid pH 6.9, 25° C., 30 minutes), this compound showed a solubility at 30 min of 210 µg/mL. The solubility at 24 h is 70 µg/mL in series [3] (Simulated Lung Fluid (SLF), pH 6.9, fassgf or other biorelevant, thermodynamic from solid, Simulated Lung Fluid, 25° C., read-out: solubility in SLF) and 3200 µg/mL in [3] (thermodynamic from solid, water, 25° C., read-out: solubility in water). Further, the “solubility in simulated lung fluid (in words)” value in series [3] (simulated lung fluid) is reported as “good solubility”. Besides, the solubility at 60 min in series [3] (thermodynamic from solid, water, 25° C., 60 minutes) is 8900 µg/mL. Besides, in series [3] (water), the “solubility in water (in words)” value is “good solubility”. Moreover, the “decomposition onset temperature (TGA)” value in [4] is “about 285 °C”.

For the compound `CCc1cc(O)c(F)cc1-c1ccc2c(-c3nc4c([nH]3)CCN(C3CCN(C)CC3)C4)n[nH]c2c1` [compound 1, 5-ethyl-2-fluoro-4-(3-(5-(1-methylpiperidin-4-yl)-4,5,6,7-tetrahydro-1H-imidazo[4,5-c]pyridin-2-yl)-1H-indazol-6-yl)phenol], the “inhibition of JAK1 (in words)” value at JAK1 is “potent inhibitor”. The “inhibition of JAK2 (in words)” value on JAK2 is on record as “potent inhibitor”. Besides, at JAK3, the “inhibition of JAK3 (in words)” value is on record as “potent inhibitor”. At TYK2, the “inhibition of TYK2 (in words)” value is on record as “potent inhibitor”. Also, the “inhibition of pro-inflammatory and pro-fibrotic cytokines (in words)” value in series [5] was “potent inhibition”. Further, the “lung retention (in words)” value in series [6] is “significant lung retention”.

By solubility is commonly meant the concentration that dissolves in the medium under given conditions.
